# Values of other authors, collected in US20050118222A1, “Product to combat ticks and the process for the product's preparation” (priority 2002, published 2005).
# What was measured:
# [1] = tested on: manure-processing insect and coleopterous flora in the soil
# [2] = in vivo
substance,measurement,setting,value
(4″R)-4″-epi(Acetylamino)-4″-deoxyavermectin B1 [Eprinomectin],applied drug eliminated through the milk,in vivo,0.1%
same,"elimination through the milk, times less compared to ivermectin or moxidectin",versus ivermectin or moxidectin,50 times
same,effect on manure-processing insect and coleopterous flora in the soil,[1],does not affect
same,elimination through dung,[2],85%
